According to publication PMC11595612, “Phytochemical Investigation and Biological Activities of Desmodium heterocarpon Extract as Anti-Tyrosinase: Isolation of Natural Compounds, In Vitro and In Silico Study” (Life, 2024):
≈ marks a conversion by molar mass, not a printed value. Where two headings read alike, the source gives them in different places.

Columns and labels:
[1] = system: Candida albicans (TISTR 5779); test: MIC/MFC by micro-dilution method; details: for MFC / MIC: Candida albicans, TISTR5779
[2] = system: Staphylococcus aureus (ATTC 25923); test: MIC/MBC by micro-dilution method
[3] = system: Propionibacterium acnes (DMST 14916); test: MIC/MBC by micro-dilution method; details: Cutibacterium acnes
[4] = system: Trichophyton mentagrophytes; test: MIC/MFC by micro-dilution method; details: for MFC / MIC: Trichophyton mentagrophytes
[5] = system: Escherichia coli ATCC35218; test: MIC/MBC by micro-dilution method
[6] = system: Microsporum gypseum; test: MIC/MFC by micro-dilution method; details: for MFC / MIC: Nannizzia gypsea
[7] = system: Pseudomonas aeruginosa ATCC10145; test: MIC/MBC by micro-dilution method
[8] = system: Trichophyton rubrum; test: MIC/MFC by micro-dilution method; details: for MFC / MIC: Trichophyton rubrum
[9] = system: Staphylococcus epidermidis (TISTR 517); test: MIC/MBC by micro-dilution method; details: TISTR517
[10] = system: tyrosinase; details: cited from earlier work
[11] = system: Candida albicans, Microsporum gypseum, Trichophyton rubrum, and T. mentagrophytes; test: MIC/MFC by micro-dilution, summary over yeast and filamentous fungi (abstract); format: cell-based; details: C. albicans, M. gypseum
[12] = system: MRSA, S. epidermidis, Propionibacterium acnes, Escherichia coli, and Pseudomonas aeruginosa; test: MIC/MBC by micro-dilution, summary over bacteria (abstract)
[13] = system: Rhizopus stolonifer and Botrytis; parameters: method as in doi:10.1016/S0925-5214(96)00031-2; details: at a dosage of 5 mM; cited from earlier work
[14] = system: B. aureus, L. monocytogenes, and E. coli; parameters: method as in doi:10.17221/132/2010-CJFS; details: cited from earlier work
[15] = target: tyrosinase; details: previous study, read-out: IC50, anti-tyrosinase activity, cited from earlier work
[16] = system: A. fumigatus, A. flavus, A. niger, and tested Chrysosporium species; parameters: method as in earlier work; details: at 30 mg/mL; isolated from fruit extract of Flacourtia inermis Roxb; cited from earlier work
[17] = system: P. aeruginosa, Klebsiella pneumoniae, E. coli, Salmonella typhimurium, and S. aureus; details: at a concentration of 315 ± 0.04 µg/mL; cited from earlier work

| Structure (SMILES) | MBC ([2]; Staphylococcus aureus) | MIC ([2]; Staphylococcus aureus) | MBC [3] | MIC [3] | MFC [4] | MIC [4] | MBC [5] | MIC [5] | MFC [6] | MIC [6] | MFC [1] | MIC [1] | MBC [7] | MIC [7] | MFC [8] | MIC [8] | MBC [9] | MIC [9] | further results |
| --- | --- | --- | --- | --- | --- | --- | --- | --- | --- | --- | --- | --- | --- | --- | --- | --- | --- | --- | --- |
| C[C@@H]1[C@H](O)[C@@H](C)/C=C/C=C/C=C/C=C/C=C/C=C/C=C/[C@H](O[C@@H]2O[C@H](C)[C@@H](O)[C@H](N)[C@@H]2O)C[C@@H]2O[C@](O)(C[C@@H](O)C[C@@H](O)[C@H](O)CC[C@@H](O)C[C@@H](O)CC(=O)O[C@H]1C)C[C@H](O)[C@H]2C(=O)O [amphotericin B, reference compound] | – | – | – | – | – | – | – | – | – | – | – | – | – | – | – | – | – | – | Antibiotic * (positive control value; MIC/MFC not specified) ([1]; C. albicans): 0.5 |
| CC[C@H](CC[C@@H](C)[C@H]1CC[C@H]2[C@@H]3CC=C4C[C@@H](O[C@@H]5O[C@H](CO)[C@@H](O)[C@H](O)[C@H]5O)CC[C@]4(C)[C@H]3CC[C@]12C)C(C)C [compound 4, β-sitosterol-D-glucoside] | > 100 µg/mL | > 100 µg/mL | > 100 µg/mL | > 100 µg/mL | > 100 µg/mL | > 100 µg/mL | > 100 µg/mL | > 100 µg/mL | > 100 µg/mL | > 100 µg/mL | > 100 µg/mL | > 100 µg/mL | > 100 µg/mL | > 100 µg/mL | > 100 µg/mL | > 100 µg/mL | > 100 µg/mL | > 100 µg/mL | – |
| O=C(O)c1ccccc1O [compound 3, salicylic acid] | – | – | – | – | – | – | – | – | – | – | – | – | – | – | – | – | – | – | type of inhibition (Lineweaver–Burk plots) [10]: non-competitive inhibitor |
| CC(=O)N1CCN(c2ccc(OCC3COC(Cn4ccnc4)(c4ccc(Cl)cc4Cl)O3)cc2)CC1 (centres unmarked) [ketoconazole, reference compound] | – | – | – | – | – | – | – | – | – | – | – | – | – | – | – | – | – | – | Antibiotic * (positive control value; MIC/MFC not specified) ([4]; T. mentagrophytes): 0.25; Antibiotic * (positive control value; MIC/MFC not specified) ([6]; M. gypseum): 0.25; Antibiotic * (positive control value; MIC/MFC not specified) ([8]; T. rubrum): 0.25 |
| CCCCCCCCCCCCCCCC(=O)O [compound 2, hexadecanoic acid] | > 100 µg/mL | > 100 µg/mL | > 100 µg/mL | > 100 µg/mL | > 100 µg/mL | > 100 µg/mL | > 100 µg/mL | > 100 µg/mL | > 100 µg/mL | > 100 µg/mL | > 100 µg/mL | > 100 µg/mL | > 100 µg/mL | > 100 µg/mL | > 100 µg/mL | > 100 µg/mL | > 100 µg/mL | > 100 µg/mL | – |
| O=C(O)c1cc(O)ccc1O [compound 6, 2,5-dihydroxybenzoic acid] | 5 µg/mL (≈ 32.4 µM) | 5 µg/mL (≈ 32.4 µM) | 40 µg/mL (≈ 260 µM) | 30 µg/mL (≈ 195 µM) | 15 µg/mL (≈ 97.3 µM) | 15 µg/mL (≈ 97.3 µM) | 35 µg/mL (≈ 227 µM) | 20 µg/mL (≈ 130 µM) | 15 µg/mL (≈ 97.3 µM) | 15 µg/mL (≈ 97.3 µM) | 15 µg/mL (≈ 97.3 µM) | 15 µg/mL (≈ 97.3 µM) | 35 µg/mL (≈ 227 µM) | 20 µg/mL (≈ 130 µM) | 15 µg/mL (≈ 97.3 µM) | 15 µg/mL (≈ 97.3 µM) | 15 µg/mL (≈ 97.3 µM) | 15 µg/mL (≈ 97.3 µM) | MBC ([2]; S. aureus): 5 µg/mL (≈ 32.4 µM); MIC ([2]; S. aureus): 5 µg/mL (≈ 32.4 µM); MFC [11]: 15 µg/mL (≈ 97.3 µM); MIC [11]: 15 µg/mL (≈ 97.3 µM); MBC [12]: 15 to 40 µg/mL (≈ 97.3 to 260 µM); MIC [12]: 15 to 30 µg/mL (≈ 97.3 to 195 µM); spore germination [13]: inhibited; MIC [14]: 2.5 mM (≈ 385 µg/mL) |
| O=c1c(-c2ccc(O)cc2)coc2cc(O)cc(O)c12 [compound 1, genistein] | > 100 µg/mL | > 100 µg/mL | > 100 µg/mL | > 100 µg/mL | > 100 µg/mL | > 100 µg/mL | > 100 µg/mL | > 100 µg/mL | > 100 µg/mL | > 100 µg/mL | > 100 µg/mL | > 100 µg/mL | > 100 µg/mL | > 100 µg/mL | > 100 µg/mL | > 100 µg/mL | > 100 µg/mL | > 100 µg/mL | IC50 ([15]; ref 40): 363 µM; IC50 ([15]; ref 41): 822 µM |
| O=C(O)c1cccc(O)c1O [compound 5, 2,3-dihydroxybenzoic acid] | 15 µg/mL (≈ 97.3 µM) | 15 µg/mL (≈ 97.3 µM) | 20 µg/mL (≈ 130 µM) | 15 µg/mL (≈ 97.3 µM) | 10 µg/mL (≈ 64.9 µM) | 10 µg/mL (≈ 64.9 µM) | 15 µg/mL (≈ 97.3 µM) | 15 µg/mL (≈ 97.3 µM) | 10 µg/mL (≈ 64.9 µM) | 10 µg/mL (≈ 64.9 µM) | 15 µg/mL (≈ 97.3 µM) | 10 µg/mL (≈ 64.9 µM) | 20 µg/mL (≈ 130 µM) | 15 µg/mL (≈ 97.3 µM) | 10 µg/mL (≈ 64.9 µM) | 10 µg/mL (≈ 64.9 µM) | 15 µg/mL (≈ 97.3 µM) | 15 µg/mL (≈ 97.3 µM) | antifungal action [16]: preventing the growth; growth of bacteria [17]: inhibited the growth |
